# Experiments:
# Format in all cases: in vivo
# [1] = test system: velvetleaf (Abutilon theophrasti, ABUTH); assay: Pre-emerge test, greenhouse herbicide activity screening; details: Abutilon theophrasti, pre-emergence, 336 h, phytotoxicity rating 0-100, 14 days after application, read-out: Pre-emerge Herbicidal Activity ABUTH
# Outline: (§1)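 Rating: 0–100 visual injury, 14 DAA. Application: acetone, 187 l/ha, 15–1000 g ai/ha, flat-fan track sprayer with nozzle 40–45 cm above soil or canopy. Post-emerge runs used 0.25% v/v surfactant on 2–3 leaf plants.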
# [2] = test system: large crabgrass (Digitaria sanguinalis, DIGSA); assay: as above; details: Digitaria sanguinalis, pre-emergence, 336 h, phytotoxicity rating 0-100, 14 days after application, read-out: Pre-emerge Herbicidal Activity DIGSA
# Outline: as §1
# [3] = test system: green foxtail (Setaria viridis, SETVI); assay: as above; details: Setaria viridis, pre-emergence, 336 h, phytotoxicity rating 0-100, 14 days after application, read-out: Pre-emerge Herbicidal Activity SETVI
# Outline: as §1
# [4] = test system: johnsongrass (Sorghum halepense, SORHA); assay: as above; details: Sorghum halepense, pre-emergence, 336 h, phytotoxicity rating 0-100, 14 days after application, read-out: Pre-emerge Herbicidal Activity SORHA
# Outline: as §1
# [5] = test system: sicklepod (Cassia obtusifolia, CASOB); assay: as above; details: Senna obtusifolia, pre-emergence, 336 h, phytotoxicity rating 0-100, 14 days after application, read-out: Pre-emerge Herbicidal Activity CASOB
# Outline: as §1
# [6] = test system: barnyardgrass (Echinochloa crus-galli, ECHCG); assay: as above; details: Echinochloa crus-galli, pre-emergence, 336 h, phytotoxicity rating 0-100, 14 days after application, read-out: Pre-emerge Herbicidal Activity ECHCG
# Outline: as §1
# [7] = test system: ivyleaf morningglory (Ipomoea hederacea, IPOHE); assay: as above; details: Ipomoea, pre-emergence, 336 h, phytotoxicity rating 0-100, 14 days after application, read-out: Pre-emerge Herbicidal Activity IPOHE
# Outline: as §1
# [8] = test system: lambsquarters (Chenopodium album, CHEAL); assay: as above; details: Chenopodium album, pre-emergence, 336 h, phytotoxicity rating 0-100, 14 days after application, read-out: Pre-emerge Herbicidal Activity CHEAL
# Outline: as §1
# [9] = test system: redroot pigweed (Amaranthus retroflexus, AMARE); assay: Post-emerge test, greenhouse herbicide activity screening; details: post-emerge, 14 days after application
# Outline: (§2)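 Compounds in acetone were track-sprayed at 15-1000 g ai/ha (187 l/ha) on sandy loam pots: pre-emerge one day after seeding, post-emerge at 2-3 leaf stage with 0.25% v/v non-ionic surfactant. Phytotoxicity was rated 14 days later on a 0 (no damage) to 100 (complete death) scale.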
# [10] = test system: velvetleaf (Abutilon theophrasti, ABUTH); assay: as above; details: post-emerge, 14 days after application, rating scale 0-100
# Outline: as §2
# [11] = test system: large crabgrass (Digitaria sanguinalis, DIGSA); assay: as above; details: post-emerge, 14 days after application, rating scale 0-100
# Outline: as §2
# [12] = test system: green foxtail (Setaria viridis, SETVI); assay: as above; details: post-emerge, 14 days after application, rating scale 0-100
# Outline: as §2
# [13] = test system: johnsongrass (Sorghum halepense, SORHA); assay: as above; details: post-emerge, 14 days after application, rating scale 0-100
# Outline: as §2
# [14] = test system: sicklepod (Cassia obtusifolia, CASOB); assay: as above; details: post-emerge, 14 days after application, rating scale 0-100
# Outline: as §2
# [15] = test system: lambsquarters (Chenopodium album, CHEAL); assay: as above; details: post-emerge, 14 days after application, rating scale 0-100
# Outline: as §2
compound,measurement,setting,value
"CNC(=O)N(C(=O)NC)c1c(OC)c(Cl)cc(F)c1-n1c(=O)cc(C(F)(F)F)n(C)c1=O [Compound 3-1, 3-[2-bis(methylaminocarbonyl)amino-4-chloro-6-fluoro-3-methoxyphenyl]-1-methyl-6-trifluoromethyl-2,4(1H, 3H)-pyrimidinedione]",pest or weed control at 63 g/ha,[1]; 63 g ai/ha,0%
same,pest or weed control at 250 g/ha,[1]; 250 g ai/ha,20%
same,pest or weed control at 63 g/ha,[2]; 63 g ai/ha,0%
same,pest or weed control at 250 g/ha,[2]; 250 g ai/ha,0%
same,pest or weed control at 63 g/ha,[3]; 63 g ai/ha,0%
same,pest or weed control at 250 g/ha,[3]; 250 g ai/ha,0%
same,pest or weed control at 63 g/ha,[4]; 63 g ai/ha,0%
same,pest or weed control at 250 g/ha,[4]; 250 g ai/ha,0%
same,pest or weed control at 63 g/ha,[5]; 63 g ai/ha,0%
same,pest or weed control at 250 g/ha,[5]; 250 g ai/ha,0%
same,pest or weed control at 63 g/ha,[6]; 63 g ai/ha,0%
same,pest or weed control at 250 g/ha,[6]; 250 g ai/ha,0%
same,pest or weed control at 63 g/ha,[7]; 63 g ai/ha,0%
same,pest or weed control at 250 g/ha,[7]; 250 g ai/ha,0%
same,pest or weed control at 63 g/ha,[8]; 63 g ai/ha,20%
same,pest or weed control at 250 g/ha,[8]; 250 g ai/ha,80%
same,phytotoxicity rating AMARE,"[9]; 63 g ai/ha, rating scale 0-100 (0 no damage, 100 complete death)",0
same,phytotoxicity rating AMARE,"[9]; 250 g ai/ha, rating scale 0-100",60
same,phytotoxicity rating ABUTH,[10]; 63 g ai/ha,0
same,phytotoxicity rating ABUTH,[10]; 250 g ai/ha,0
same,phytotoxicity rating DIGSA,[11]; 63 g ai/ha,0
same,phytotoxicity rating DIGSA,[11]; 250 g ai/ha,0
same,phytotoxicity rating SETVI,[12]; 63 g ai/ha,0
same,phytotoxicity rating SETVI,[12]; 250 g ai/ha,0
same,phytotoxicity rating SORHA,[13]; 63 g ai/ha,0
same,phytotoxicity rating SORHA,[13]; 250 g ai/ha,0
same,phytotoxicity rating CASOB,[14]; 63 g ai/ha,0
same,phytotoxicity rating CASOB,[14]; 250 g ai/ha,0
same,phytotoxicity rating CHEAL,[15]; 63 g ai/ha,0
same,phytotoxicity rating CHEAL,[15]; 250 g ai/ha,60
